System: patients with type 2 diabetes
Format: in vivo, human
Details: reduction from […]; insulin glargine on top of metformin +/- TZDs, before randomized treatment
Protocol: The study consisted of 3 periods: (1) an up to 14-week screening period, which included an up to 2-week screening phase and a 12-week run-in phase with the introduction and titration of insulin glargine on top of metformin+/−TZDs; patients started insulin glargine once daily and titrated the insulin dose by a treat-to-target regimen to reach a glycemic target of FPG 100-80 mg/dl (5.6-4.4 mmol/L) during run-in.
Of note, per protocol, insulin dose adjustment to maintain fasting plasma glucose at target was allowed in both treatment groups throughout the study.

Question: “Gly(A21)-Arg(B31)-Arg(B32)-human insulin [insulin glargine]” was tested. Which “Mean HbA1c after the 12-week run-in phase, lixisenatide group” value did it give?
Answer: Its value is 7.56%.

Question: What about the “Mean HbA1c after the 12-week run-in phase, placebo group” value of the same substance?
Answer: The value was 7.60%.
